In patent publication US7855205B2, “Pyrimidinyl substituted fused-pyrrolyl compounds useful in treating kinase disorders” (Janssen Pharmaceutica NV, priority 2004, dated 2010):

Key:
CDK1:Cyclin-B = target: T1, CDK1:Cyclin-B (Homo sapiens, UniProt P06493); experiment: CDK1 Screening Assay; format: biochemical; conditions: 33P-γ-ATP incorporation, 10 μM ATP
T1 construct: purchased New England Biolabs, Beverly, Mass; 6020; host or cells: insect cells
Method in brief: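 Human CDK1/cyclin B co-expressed in insect cells (30 ng/well) in 50 mM Tris pH 8, 10 mM MgCl2, with 10 μM ATP, 33P-γ-ATP and 0.025 μM biotinylated histone H1 peptide (reaction-mix levels); 1% DMSO final. 1 h at 30° C. 33P incorporation into streptavidin-captured peptide by scintillation counting.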

RET = target: T2, RET (Homo sapiens, UniProt P07949); experiment: RET Kinase Screening Assay; format: biochemical; conditions: 33P-γ-ATP incorporation, 10 μM ATP
T2 construct: the RET cytoplasmic domain consisting of the last 492 amino acids of the intracellular domain of the RET tyrosine kinase; histidine tag (N); made in house; host or cells: Hi5 insect cells
T2 sequence (P07949 658-1114 limits assumed): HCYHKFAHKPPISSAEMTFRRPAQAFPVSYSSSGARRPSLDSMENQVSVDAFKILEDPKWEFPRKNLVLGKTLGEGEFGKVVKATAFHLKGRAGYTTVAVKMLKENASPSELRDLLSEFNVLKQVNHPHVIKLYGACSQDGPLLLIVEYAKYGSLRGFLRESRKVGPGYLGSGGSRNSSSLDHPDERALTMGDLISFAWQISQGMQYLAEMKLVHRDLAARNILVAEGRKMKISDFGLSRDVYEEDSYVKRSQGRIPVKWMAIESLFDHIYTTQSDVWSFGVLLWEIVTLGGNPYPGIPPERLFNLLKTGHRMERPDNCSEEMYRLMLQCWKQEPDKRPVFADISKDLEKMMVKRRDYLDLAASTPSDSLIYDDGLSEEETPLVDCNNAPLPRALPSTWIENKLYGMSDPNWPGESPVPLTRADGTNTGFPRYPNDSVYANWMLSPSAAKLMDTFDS

[1] = test system: HeLa cervical adenocarcinoma; experiment: Inhibition of cell proliferation (14C-thymidine incorporation), HeLa; format: cell-based; conditions: Homo sapiens;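 further: HeLa cells in 96-well scintillating plates, compound for 24 h then 24 h more with 14C-thymidine, counting label built into new DNA against DMSO-only control wells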
VEGF-R2 = target: T3, VEGF-R2 (Rattus norvegicus, UniProt O08775); experiment: VEGF-R2 Screening Assay; format: biochemical; conditions: 33P-γ-ATP incorporation, 10 μM ATP
T3 construct: polyhistidine (N)
Method in brief: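 The N-terminally His-tagged rat VEGF-R2 kinase domain (aa 786-1343), diluted in 50 mM Tris-HCl pH 8.0 with 0.1% BSA, phosphorylated a biotinylated histone-H1 peptide with 33P-γ-ATP on Flashplates for 1 h at 30 °C in 1% DMSO. After washes with EDTA/PBS, immobilized 33P was counted by scintillation.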

A375 malignant melanoma = experiment: Inhibition of cell proliferation (14C-thymidine incorporation), A375; format: cell-based, human; conditions: Homo sapiens, A-375
Method in brief: (§1)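 Cells (3000-8000/well) grown 24 h at 37° C, 5% CO2, then given compound in DMSO for 24 h before adding methyl 14C-thymidine (0.2 uCi/well) for a further 24 h with drug. After PBS washes, incorporation into DNA counted by scintillation.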

HCT-116 colon carcinoma = experiment: Inhibition of cell proliferation (14C-thymidine incorporation), HCT-116; format: cell-based; conditions: Homo sapiens, HCT-116, HCT116
Method in brief: as §1

Aurora-A = target: T4, Aurora-A (Mus musculus, UniProt P97477); experiment: Aurora-A Screening Assay; format: biochemical, murine; conditions: 33P-γ-ATP incorporation, 10 μM ATP
T4 construct: made in house; host or cells: sf9 insect cells
T4 sequence (P97477 1-395): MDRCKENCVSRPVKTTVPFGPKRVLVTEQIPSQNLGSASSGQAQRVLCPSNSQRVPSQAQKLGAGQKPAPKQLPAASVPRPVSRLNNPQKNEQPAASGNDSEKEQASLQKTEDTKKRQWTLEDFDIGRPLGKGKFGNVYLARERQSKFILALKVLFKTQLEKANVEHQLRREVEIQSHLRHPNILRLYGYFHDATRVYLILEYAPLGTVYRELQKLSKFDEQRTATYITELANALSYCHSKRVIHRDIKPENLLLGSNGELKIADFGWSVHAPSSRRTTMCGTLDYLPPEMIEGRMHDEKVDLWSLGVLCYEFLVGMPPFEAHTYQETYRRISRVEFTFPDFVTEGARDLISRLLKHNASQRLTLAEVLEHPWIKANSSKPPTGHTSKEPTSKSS

T3 sequence (O08775 786-1343): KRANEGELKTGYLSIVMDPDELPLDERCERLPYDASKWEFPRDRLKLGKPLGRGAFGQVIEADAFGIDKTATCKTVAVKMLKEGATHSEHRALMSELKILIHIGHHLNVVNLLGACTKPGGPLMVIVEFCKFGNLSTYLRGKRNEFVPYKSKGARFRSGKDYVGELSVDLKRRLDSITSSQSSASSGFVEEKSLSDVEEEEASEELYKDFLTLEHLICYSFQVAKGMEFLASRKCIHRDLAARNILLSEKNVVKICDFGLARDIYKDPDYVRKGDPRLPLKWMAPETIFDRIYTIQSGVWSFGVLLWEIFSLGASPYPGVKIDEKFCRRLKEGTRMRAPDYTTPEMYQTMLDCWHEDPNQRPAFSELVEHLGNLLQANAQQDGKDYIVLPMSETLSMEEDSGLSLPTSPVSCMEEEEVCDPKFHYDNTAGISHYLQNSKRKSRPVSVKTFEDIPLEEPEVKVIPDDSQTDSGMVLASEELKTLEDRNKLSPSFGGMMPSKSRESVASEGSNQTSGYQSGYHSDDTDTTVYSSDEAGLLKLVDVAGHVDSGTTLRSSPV
T1 sequence (P06493 whole entry): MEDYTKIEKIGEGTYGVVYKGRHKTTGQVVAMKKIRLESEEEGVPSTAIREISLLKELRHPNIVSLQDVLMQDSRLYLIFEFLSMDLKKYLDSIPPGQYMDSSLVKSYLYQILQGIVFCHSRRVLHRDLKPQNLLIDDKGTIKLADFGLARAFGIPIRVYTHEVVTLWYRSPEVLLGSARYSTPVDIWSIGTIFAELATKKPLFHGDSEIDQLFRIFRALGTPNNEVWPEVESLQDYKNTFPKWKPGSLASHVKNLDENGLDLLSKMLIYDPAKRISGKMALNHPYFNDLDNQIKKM
T1 sequence (P14635 whole entry partner): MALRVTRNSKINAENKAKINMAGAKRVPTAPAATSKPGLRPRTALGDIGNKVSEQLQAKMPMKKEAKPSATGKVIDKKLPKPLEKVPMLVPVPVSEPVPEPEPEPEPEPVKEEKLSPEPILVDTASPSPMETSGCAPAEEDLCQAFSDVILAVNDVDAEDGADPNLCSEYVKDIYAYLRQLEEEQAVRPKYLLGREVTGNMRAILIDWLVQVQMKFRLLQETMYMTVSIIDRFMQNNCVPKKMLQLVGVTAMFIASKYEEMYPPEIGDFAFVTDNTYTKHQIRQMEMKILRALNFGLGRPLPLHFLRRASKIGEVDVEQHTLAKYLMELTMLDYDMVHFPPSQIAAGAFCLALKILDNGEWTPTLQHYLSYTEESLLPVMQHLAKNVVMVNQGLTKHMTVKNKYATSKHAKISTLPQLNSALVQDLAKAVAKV

| SMILES | IC50 (CDK1:Cyclin-B) | IC50 (RET) | IC50 [1] | IC50 (VEGF-R2) | IC50 (A375 malignant melanoma) | IC50 (HCT-116 colon carcinoma) | IC50 (Aurora-A) |
| --- | --- | --- | --- | --- | --- | --- | --- |
| Nc1ccc(Nc2nccc(-c3c[nH]c4ncccc34)n2)cc1 [Cpd 37, (4-Aminophenyl)-[4-(1H-pyrrolo[2,3-b]pyridin-3-yl)-pyrimidin-2-yl]-amine] | 0.035 µM | 1.62 µM | 0.194 µM | 0.211 µM | 0.185 µM | 0.0828 µM | 0.386 µM |
| COc1cccc(Nc2nccc(-c3c[nH]c4ncccc34)n2)c1 [Cpd 6, (3-Methoxy-phenyl)-[4-(1H-pyrrolo[2,3-b]pyridin-3-yl)-pyrimidin-2-yl]-amine] | 0.119 µM | ~1 µM | 1.46 µM | 0.14 µM | 0.95 µM | 0.72 µM | 0.1 µM |
| OCCc1ccc(Nc2nccc(-c3c[nH]c4ncccc34)n2)c(Cl)c1 [Cpd 52] | 0.0087 µM | 0.54 µM | 0.162 µM | 0.322 µM | 0.134 µM | 0.121 µM | 0.0757 µM |
| CCOc1ccc(Nc2nccc(-c3c[nH]c4ncccc34)n2)cc1 [Cpd 40, (4-Ethoxyphenyl)-[4-(1H-pyrrolo[2,3-b]pyridin-3-yl)-pyrimidin-2-yl]-amine] | 0.01 µM | 1 µM | 0.0662 µM | 0.149 µM | 0.0565 µM | 0.0244 µM | 0.084 µM |
| CCN(CC)CCc1ccc(Nc2nccc(-c3c[nH]c4ncccc34)n2)c(C)c1 [Cpd 47] | 0.0014 µM | 1.4 µM | 0.00302 µM | 0.882 µM | 0.00288 µM | 0.00292 µM | 0.972 µM |
| CNCCc1ccc(Nc2nccc(-c3c[nH]c4ncccc34)n2)c(Cl)c1 [Cpd 53] | 0.0441 µM | 2.36 µM | 0.123 µM | 1.31 µM | 0.0913 µM | 0.127 µM | 0.408 µM |
| COc1ccccc1Nc1nccc(-c2c[nH]c3ncccc23)n1 [Cpd 7, (2-Methoxy-phenyl)-[4-(1H-pyrrolo[2,3-b]pyridin-3-yl)-pyrimidin-2-yl]-amine] | 0.044 µM | > 10 µM | 0.35 µM | 0.82 µM | 0.35 µM | 0.29 µM | 0.497 µM |
| Clc1ccccc1Nc1nccc(-c2c[nH]c3ncccc23)n1 [Cpd 12, (2-Chloro-phenyl)-[4-(1H-pyrrolo[2,3-b]pyridin-3-yl)-pyrimidin-2-yl]-amine] | 0.0092 µM | > 10 µM | 0.14 µM | 0.878 µM | 0.1 µM | 0.16 µM | 0.287 µM |
| COc1ccc(Nc2nccc(-c3c[nH]c4ncccc34)n2)cc1 [Cpd 5, (4-Methoxy-phenyl)-[4-(1H-pyrrolo[2,3-b]pyridin-3-yl)-pyrimidin-2-yl]-amine] | 0.011 µM | 1.14 µM | 0.059 µM | 0.238 µM | 0.05 µM | 0.034 µM | 0.134 µM |
| c1cnc2[nH]cc(-c3ccnc(NC4CCNCC4)n3)c2c1 [Cpd 65, Piperidin-4-yl-[4-(1H-pyrrolo[2,3-b]pyridin-3-yl)pyrimidin-2-yl]-amine] | 0.0603 µM | 1.23 µM | 0.0269 µM | 1.07 µM | 0.0218 µM | 0.015 µM | 1.3 µM |
| Clc1ccc(Nc2nccc(-c3c[nH]c4ncccc34)n2)cc1 [Cpd 11, (4-Chloro-phenyl)-[4-(1-H-pyrrolo[2,3-b]pyridin-3-yl)-pyrimidin-2-yl]-amine] | 0.0696 µM | > 10 µM | 1.01 µM | ~1 µM | 0.97 µM | 0.56 µM | ~1 µM |
| CN(C)c1ccc(Nc2nccc(-c3c[nH]c4ncccc34)n2)cc1 [Cpd 38, (4-Dimethylaminophenyl)-[4-(1H-pyrrolo[2,3-b]pyridin-3-yl)-pyrimidin-2-yl]-amine] | 0.0096 µM | 0.821 µM | 0.0358 µM | 0.081 µM | 0.0494 µM | 0.0216 µM | 0.112 µM |
| OCC[C@H]1CC[C@H](Nc2nccc(-c3c[nH]c4ncccc34)n2)CC1 [Cpd 77, trans-2-{4-[4-(1H-pyrrolo[2,3-b]pyridin-3-yl]-pyrimidin-2-ylamino]-cyclohexyl}-ethanol] | 0.0028 µM | – | 0.00598 µM | 3.57 µM | 0.00616 µM | 0.00762 µM | 0.374 µM |
| Cc1[nH]c2ncccc2c1-c1ccnc(N[C@H]2CC[C@H](N)CC2)n1 [Cpd 57, trans-N-[4-(2-Methyl-1H-pyrrolo[2,3-b]pyridin-3-yl)-pyrimidin-2-yl]-cyclohexane-1,4-diamine] | 0.283 µM | – | 0.135 µM | 10 µM | 0.0973 µM | 0.0732 µM | 3.98 µM |
| Cc1cc(Br)ccc1Nc1nccc(-c2c[nH]c3ncccc23)n1 [Cpd 41, (4-Bromo-2-methylphenyl)-[4-(1H-pyrrolo[2,3-b]pyridin-3-yl)-pyrimidin-2-yl]-amine] | 0.0063 µM | – | 0.0101 µM | 1.64 µM | 0.042 µM | 0.0132 µM | 0.182 µM |

Other lines, results leading:

| IC50 (CDK1:Cyclin-B) | IC50 (RET) | IC50 [1] | IC50 (VEGF-R2) | IC50 (A375 malignant melanoma) | IC50 (HCT-116 colon carcinoma) | IC50 (Aurora-A) | SMILES |
| --- | --- | --- | --- | --- | --- | --- | --- |
| 0.00196 µM | 2.28 µM | 0.00252 µM | 0.75 µM | 0.00282 µM | 0.00294 µM | 0.333 µM | Cc1cc(CCN2CCOCC2)ccc1Nc1nccc(-c2c[nH]c3ncccc23)n1 [Cpd 49, {4-[2-(Morpholin-4-yl)ethyl]-2-methylphenyl}-[4-(1H-pyrrolo[2,3-b]pyridin-3-yl)-pyrimidin-2-yl]-amine] |
| – | 3.52 µM | 0.00255 µM | 0.875 µM | 0.00255 µM | 0.00301 µM | 0.86 µM | Cc1cc(CCN2CCCC2)ccc1Nc1nccc(-c2c[nH]c3ncccc23)n1 [Cpd 48] |
| 0.0011 µM | 3.07 µM | 0.00268 µM | 0.959 µM | 0.00284 µM | 0.00283 µM | 0.902 µM | Cc1cc(CCN2CCCCC2)ccc1Nc1nccc(-c2c[nH]c3ncccc23)n1 [Cpd 50, {4-[2-(Piperidin-1-yl)ethyl]-2-methylphenyl}-[4-(1H-pyrrolo[2,3-b]pyridin-3-yl)-pyrimidin-2-yl]-amine] |
| 0.105 µM | 1.24 µM | 1.1 µM | 1.04 µM | 0.727 µM | 0.774 µM | 0.859 µM | Clc1cc(CCN2CCOCC2)ccc1Nc1nccc(-c2c[nH]c3ncccc23)n1 [Cpd 56, {2-Chloro-4-[2-(morpholin-4-yl)ethyl]phenyl}-[4-(1H-pyrrolo[2,3-b]pyridin-3-yl)-pyrimidin-2-yl]-amine] |
| 0.00095 µM | 1.54 µM | 0.00337 µM | 0.583 µM | 0.00167 µM | 0.0022 µM | 0.317 µM | CNCCc1ccc(Nc2nccc(-c3c[nH]c4ncccc34)n2)c(C)c1 [Cpd 45] |
| 0.000764 µM | 4.82 µM | 0.0059 µM | 0.927 µM | 0.00858 µM | 0.00492 µM | 0.119 µM | Cc1cc(O)ccc1Nc1nccc(-c2c[nH]c3ncccc23)n1 [Cpd 79, 3-Methyl-4-[4-(1H-pyrrolo[2,3-b]pyridin-3-yl)-pyrimidin-2-ylamino]-phenol] |
